Here are results for 30 molecules from patent publication US20130324522A1, “INSECT ODORANT RECEPTOR ANTAGONISTS” (THE ROCKEFELLER UNIVERSITY, priority 2010, published 2013).

Common to all, as to assay type: cell-based
Test [1] has as its target OR8/OR7 (Anopheles gambiae, UniProt Q7PUT5+Q7QCC7). Put plainly: Ca2+-imaging of stable HEK293T cell line OR8/OR7. Conditions: for inhibition at 4 µM: HEK-293T, compound applied at 4 μM, read-out: Percent Inhibition OR8 OR7; for IC50: Table B, read-out: IC50 OR8. The gist of the method:
(§1)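 Odorant solutions were prepared in HBSS at 9× final, with test compounds transferred in from […] DMSO stocks. These mixtures were applied to dye-loaded HEK293T stable receptor lines, and calcium responses were recorded in real time.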

Test [2] has as its target T1, Or47a/Or83b (Drosophila melanogaster, UniProt P81921+Q9VNB5).
T1 construct: Full-length cDNAs for mosquito (Anopheles gambiae) odorant receptor (OR1, OR2, OR7, OR8, OR28), and fly (Drosophila melanogaster) odorant receptor (Or47a, Or83b); expressed in transfected cells
T1 sequence (P81921 1-385): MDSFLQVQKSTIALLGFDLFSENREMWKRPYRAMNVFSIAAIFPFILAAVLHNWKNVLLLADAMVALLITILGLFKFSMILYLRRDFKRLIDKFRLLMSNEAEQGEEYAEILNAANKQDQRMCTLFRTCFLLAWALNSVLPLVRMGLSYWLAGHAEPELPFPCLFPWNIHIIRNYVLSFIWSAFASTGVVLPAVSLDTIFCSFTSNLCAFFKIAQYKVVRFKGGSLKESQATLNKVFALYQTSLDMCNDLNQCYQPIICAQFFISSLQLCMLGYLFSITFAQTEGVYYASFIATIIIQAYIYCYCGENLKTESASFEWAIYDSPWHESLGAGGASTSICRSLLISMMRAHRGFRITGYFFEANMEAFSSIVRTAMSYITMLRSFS
T1 sequence (Q9VNB5 1-486): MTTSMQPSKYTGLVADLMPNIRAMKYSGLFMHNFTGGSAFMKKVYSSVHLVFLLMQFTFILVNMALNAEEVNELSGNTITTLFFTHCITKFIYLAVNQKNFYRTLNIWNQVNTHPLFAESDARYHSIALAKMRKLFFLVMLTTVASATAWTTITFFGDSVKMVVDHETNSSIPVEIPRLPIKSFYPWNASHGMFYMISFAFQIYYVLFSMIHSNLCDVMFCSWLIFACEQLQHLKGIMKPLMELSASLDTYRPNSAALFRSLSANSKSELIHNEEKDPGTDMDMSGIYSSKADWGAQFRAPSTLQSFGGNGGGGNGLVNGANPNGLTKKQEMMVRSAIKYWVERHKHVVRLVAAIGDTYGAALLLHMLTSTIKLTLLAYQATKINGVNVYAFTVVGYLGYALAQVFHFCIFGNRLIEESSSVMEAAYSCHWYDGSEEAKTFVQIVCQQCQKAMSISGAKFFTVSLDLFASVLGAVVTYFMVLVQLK
The test can be described thus: Ca2+-imaging of stable Flip-In T-Rex cell line Or47a/Or83b. Conditions: for IC50: read-out: IC50 OR47a; for inhibition at 4 µM: read-out: Percent Inhibition OR47a OR83b. The procedure, abridged:
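Calcium responses were read on an FDSS6000 (485 nm excitation, 525 nm emission) after Ca-4 loading for 1.5 h at room temperature. Cells were tetracycline-induced Flp-In T-REx lines stably carrying fly Or47a/Or83b or mouse 5HT3, plated 2 days ahead; compounds were co-delivered in HBSS odorant solution.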

Test [3] has as its target T2, TRP channel (TRPM8) (Mus musculus, UniProt Q8R4D5).
T2 construct: Full-length cDNAs for mosquito (Anopheles gambiae) odorant receptor (OR1, OR2, OR7, OR8, OR28), and fly (Drosophila melanogaster) odorant receptor (Or47a, Or83b), mouse TRP channel (TRPM8); expressed in transfected cells
Put plainly: Ca2+-imaging of stable HEK293T cell line TRPM8. The conditions noted are these: HEK-293T; compound applied at 4 μM; read-out: Percent Inhibition TRPM8. The gist of the method:
as §1

Like-named read-outs stand apart in the source and are kept apart here.

Sequence of OR8/OR7 (Q7QCC7 whole entry): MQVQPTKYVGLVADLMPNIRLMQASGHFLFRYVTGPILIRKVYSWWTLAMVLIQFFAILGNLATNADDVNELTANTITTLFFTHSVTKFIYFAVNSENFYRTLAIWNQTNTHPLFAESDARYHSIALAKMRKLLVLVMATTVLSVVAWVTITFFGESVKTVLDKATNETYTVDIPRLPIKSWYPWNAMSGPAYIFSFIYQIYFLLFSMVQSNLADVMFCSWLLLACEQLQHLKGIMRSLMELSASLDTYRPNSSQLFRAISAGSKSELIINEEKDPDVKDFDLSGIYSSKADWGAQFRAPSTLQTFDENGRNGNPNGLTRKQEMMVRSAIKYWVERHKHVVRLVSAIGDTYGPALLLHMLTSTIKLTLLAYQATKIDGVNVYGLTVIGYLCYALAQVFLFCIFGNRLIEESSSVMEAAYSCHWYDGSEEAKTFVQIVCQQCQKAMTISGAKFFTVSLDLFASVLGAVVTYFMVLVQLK
Sequence of OR8/OR7 (Q7PUT5 entry or part of it): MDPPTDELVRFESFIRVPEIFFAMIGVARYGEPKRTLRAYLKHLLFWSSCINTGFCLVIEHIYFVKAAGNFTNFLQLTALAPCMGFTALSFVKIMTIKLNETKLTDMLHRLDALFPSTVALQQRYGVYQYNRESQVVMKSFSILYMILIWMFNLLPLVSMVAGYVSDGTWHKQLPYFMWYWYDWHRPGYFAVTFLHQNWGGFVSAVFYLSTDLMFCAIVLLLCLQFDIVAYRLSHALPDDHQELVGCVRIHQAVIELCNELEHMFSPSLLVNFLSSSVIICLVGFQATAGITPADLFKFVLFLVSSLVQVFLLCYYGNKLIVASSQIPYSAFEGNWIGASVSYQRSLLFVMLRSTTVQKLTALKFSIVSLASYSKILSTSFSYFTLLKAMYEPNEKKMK
T2 sequence (Q8R4D5 whole entry): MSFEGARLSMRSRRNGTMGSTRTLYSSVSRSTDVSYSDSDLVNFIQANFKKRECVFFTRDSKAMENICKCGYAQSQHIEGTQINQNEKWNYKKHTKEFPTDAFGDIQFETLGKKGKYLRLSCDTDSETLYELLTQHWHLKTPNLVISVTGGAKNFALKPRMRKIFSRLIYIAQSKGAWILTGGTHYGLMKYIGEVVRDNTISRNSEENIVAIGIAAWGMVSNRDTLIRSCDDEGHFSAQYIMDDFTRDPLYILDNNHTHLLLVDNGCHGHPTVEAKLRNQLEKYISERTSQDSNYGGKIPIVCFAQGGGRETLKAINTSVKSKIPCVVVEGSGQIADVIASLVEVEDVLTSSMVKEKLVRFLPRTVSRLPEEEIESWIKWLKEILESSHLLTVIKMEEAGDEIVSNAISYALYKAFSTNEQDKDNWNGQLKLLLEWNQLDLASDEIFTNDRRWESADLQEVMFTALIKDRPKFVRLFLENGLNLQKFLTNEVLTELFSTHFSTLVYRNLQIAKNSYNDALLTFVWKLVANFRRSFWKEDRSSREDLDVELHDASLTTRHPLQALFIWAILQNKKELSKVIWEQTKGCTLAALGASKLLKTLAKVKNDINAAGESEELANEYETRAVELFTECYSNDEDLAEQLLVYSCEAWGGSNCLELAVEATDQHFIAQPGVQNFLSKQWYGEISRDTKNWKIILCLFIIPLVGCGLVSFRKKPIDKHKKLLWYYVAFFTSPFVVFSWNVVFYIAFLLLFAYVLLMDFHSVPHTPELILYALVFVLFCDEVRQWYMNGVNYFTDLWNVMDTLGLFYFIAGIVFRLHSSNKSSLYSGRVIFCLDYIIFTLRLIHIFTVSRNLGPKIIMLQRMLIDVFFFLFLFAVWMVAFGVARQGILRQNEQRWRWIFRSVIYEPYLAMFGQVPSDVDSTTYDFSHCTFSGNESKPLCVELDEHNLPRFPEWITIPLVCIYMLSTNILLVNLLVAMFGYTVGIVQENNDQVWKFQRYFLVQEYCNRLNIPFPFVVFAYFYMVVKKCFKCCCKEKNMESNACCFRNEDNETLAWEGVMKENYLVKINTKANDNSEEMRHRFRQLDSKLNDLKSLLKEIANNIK

For the molecule `COCCN(Cc1cc(Cl)ccc1OS(=O)(=O)c1ccc(F)cc1)C(=O)C1CCC1` [RU-0035287], the values for the inhibition at 4 µM in test [1], in test [2] (compound applied at 4 μM) and in test [3] were 26 to 50%, 51 to 74% and less than 25%, respectively. Moreover, in test [2] (Table B), the half-inhibitory concentration (IC50) (as a rule, the midpoint of a concentration-inhibition curve) is less than 100 nM.
Consider `CCN(CC)C(=O)Oc1ccc2c(ccn2Cc2cccc(C)c2)c1NC(=O)[C@H](C)OC(C)=O` [RU-0075468], for which the inhibition at 4 µM in test [1], in test [2] (compound applied at 4 μM) and in test [3] was less than 25% throughout.
Consider `CN(C)c1nc(N(C)C)nc(N(C)C)n1` [RU-0000619], for which the figures for the inhibition at 4 µM in test [1], in test [2] (compound applied at 4 μM) and in test [3] were 26 to 50%, 51 to 74% and less than 25%, respectively. In test [2] (Table B), the IC50 is greater than 1000 nM.
Take `COc1nc(NC(C)C)nc(NC(C)C)n1` [RU-0001534]: the inhibition (as a rule, how much of the control response was suppressed) at 4 µM in test [1] was 26 to 50%; in test [2] (compound applied at 4 μM), 51 to 74%; in test [3], less than 25%. The IC50 in test [2] (Table B) was greater than 1000 nM.
Take `COC(=O)C(Cc1ccccc1)NC(=O)C1CC1(c1ccccc1)c1ccccc1` (centres unmarked) [RU-0028029]: the inhibition at 4 µM was 51 to 74% in test [1], greater than 75% in test [2] (compound applied at 4 μM) and 26 to 50% in test [3]. Further, the IC50 in test [1] and in test [2] (Table B) was greater than 1000 nM each time.
With `CCOCCCN(CC(=O)N(Cc1ccc2c(c1)OCO2)Cc1sccc1C)C(=O)NC(C)(C)C` [RU-0052340], the results for the inhibition at 4 µM in test [1], in test [2] (compound applied at 4 μM) and in test [3] were less than 25%, 26 to 50% and less than 25%, respectively.
As to `CCCCc1nc(CN2CCc3c([nH]c4ccccc34)C2c2cccc(OC)c2OC)c[nH]1` (centres unmarked) [RU-0031879], the values for the inhibition at 4 µM in test [1], in test [2] (compound applied at 4 μM) and in test [3] were 26 to 50%, 51 to 74% and 26 to 50%, respectively. For the same molecule, the IC50 in test [2] (Table B) was greater than 1000 nM.
On to `COc1ccc(C(=O)c2ccccc2)c(O)c1O` [RU-0001617], for which the inhibition at 4 µM in test [1] was less than 25%; in test [2] (compound applied at 4 μM) it was 51 to 74%; in test [3] it was less than 25%. The IC50 in test [2] (Table B) is greater than 1000 nM.
Consider `COCCCN(CC(=O)N1CCc2sccc2C1c1ccc(OC)cc1)C(=O)C(C)(C)CCl` (centres unmarked) [RU-0069950], for which the inhibition at 4 µM in test [1] was 26 to 50%; in test [2] (compound applied at 4 μM) it was 51 to 74%; in test [3], less than 25%. In addition, the IC50 in test [2] (Table B) was greater than 1000 nM.
As to `COCCCN(CC(=O)N1CCc2sccc2C1COc1cccc(OC)c1)C(=O)c1ccccc1OC` (centres unmarked) [RU-0036294], the inhibition at 4 µM in test [1] fell in the range of 51 to 74%; in test [2] (compound applied at 4 μM), 51 to 74%; in test [3], 26 to 50%. Moreover, the IC50 in test [1] is greater than 1000 nM.
As for `CCOC(=O)C(c1cccc(OC)c1)C1C=CC(NC(=O)c2cccs2)C1` (centres unmarked) [RU-0074560], the figures for the inhibition at 4 µM in test [1], in test [2] (compound applied at 4 μM) and in test [3] were less than 25%, 26 to 50% and less than 25%, respectively.
On to `COc1cc(OC)cc(C2NC(=O)N(C)C3=C2C(=O)N(C2CCCCC2)C3)c1` (centres unmarked) [RU-0047750], for which the inhibition at 4 µM was less than 25% in test [1], 26 to 50% in test [2] (compound applied at 4 μM) and less than 25% in test [3].
Regarding `Cc1ccc(CN(CCc2ccccc2)C(=O)CN(C(=O)NC(C)(C)C)C(C)C)o1` [RU-0072008], the figures for the inhibition at 4 µM in test [1], in test [2] (compound applied at 4 μM) and in test [3] were less than 25%, 26 to 50% and less than 25%, respectively.
`CCOc1ccccc1C(=O)NNC(=O)COc1cc(C)cc(C)c1` [RU-0023245]: the 50% inhibitory concentration (IC50) in test [2] (Table B) was greater than 1000 nM. The inhibition at 4 µM in test [2] (compound applied at 4 μM) is greater than 75%; in test [3], less than 25%.
`Cc1ccc(-n2nc(C)c(CCC(=O)N3CCc4ccccc4C3)c2C)cc1Cl` [RU-0026074]: the IC50 in test [2] (Table B) is greater than 1000 nM. Further, the inhibition at 4 µM was in the range of 51 to 74% in test [2] (compound applied at 4 μM) and 26 to 50% in test [3].
As for `COc1ccc(N2CCN(C(=O)C3CC=CCC3C(=O)NCCCCc3ccccc3)CC2)cc1` (centres unmarked) [RU-0026167], the inhibition at 4 µM was in the range of 26 to 50% in test [1], 51 to 74% in test [2] (compound applied at 4 μM) and 26 to 50% in test [3]. Also, in test [2] (Table B), the IC50 was greater than 1000 nM.
As for `COCCNC(=O)c1ccc(CSc2nnc(-c3ccc(C)cc3)n2-c2ccccc2F)cc1` [RU-0051652], the inhibition at 4 µM in test [1], in test [2] (compound applied at 4 μM) and in test [3] was less than 25% throughout.
As for `COc1nc(OCC#N)nc(N2CCCCC2)n1` [RU-0006256], the inhibition at 4 µM in test [1] lay within 51 to 74%; in test [2] (compound applied at 4 μM) it was 51 to 74%; in test [3], 26 to 50%. Further, the half-maximal inhibitory concentration (IC50) in test [1] and in test [2] (Table B) was greater than 1000 nM each time.
Regarding `CN(Cc1ccccc1)C(=O)CCC1CCN(C(=O)CCOc2ccccc2)CC1` [RU-0028727], the IC50 in test [2] (Table B) is less than 100 nM. In addition, the inhibition at 4 µM was greater than 75% in test [2] (compound applied at 4 μM) and 26 to 50% in test [3].
Take `CCOC(=O)C(c1ccc(OC)c(OC)c1)C1C=CC(NC(=O)c2ccc3c(c2)OCO3)C1` (centres unmarked) [RU-0049030]: the results for the inhibition at 4 µM in test [1], in test [2] (compound applied at 4 μM) and in test [3] were 26 to 50%, 26 to 50% and less than 25%, respectively.
As for `Cc1cc(C)c2c(c1C(=O)N1CCC3(CC1)C(=O)NCN3c1ccccc1)CC(C)(C)C2=O` [RU-0025771], the concentration for half-maximal inhibition (IC50) in test [2] is greater than 1000 nM. Also, the figures for the inhibition at 4 µM in test [2] and in test [3] were greater than 75% and 26 to 50%, respectively.
Regarding `COCCCN(CC(=O)N1CCc2sccc2C1COc1cccc(OC)c1)C(=O)Cc1ccccc1` (centres unmarked) [RU-0036264], the inhibition at 4 µM in test [1] was 26 to 50%; in test [2] (compound applied at 4 μM) it was less than 25%; in test [3] it was 26 to 50%.
Regarding `CC(NCc1ccccc1)c1nc2ccccc2c(=O)n1-c1ccc(Cl)cc1` (centres unmarked) [RU-0072535], the results for the inhibition at 4 µM in test [1], in test [2] (compound applied at 4 μM) and in test [3] were less than 25%, 26 to 50% and less than 25%, respectively.
On to `O=C1CN(S(=O)(=O)c2c(F)cc(F)cc2F)CC2c3cccc(F)c3CCN12` (centres unmarked) [RU-0076832], for which the inhibition at 4 µM in test [1], in test [2] (compound applied at 4 μM) and in test [3] was less than 25% each time.
For `COc1ccccc1N1CCN(C(=O)c2cc3n(n2)CCN(Cc2c(F)cccc2Cl)C3=O)CC1` [RU-0043595], the inhibition at 4 µM in test [1] was 26 to 50%; in test [2] (compound applied at 4 μM), 51 to 74%; in test [3] it was less than 25%. Besides, the IC50 in test [2] (Table B) is greater than 1000 nM.
`Cc1ccc(CN(Cc2ccc(F)cc2)C(=O)CN(C(=O)NC(C)(C)C)C2CC2)s1` [RU-0052360]: the inhibition at 4 µM in test [1] lay in the range of 51 to 74%; in test [2] (compound applied at 4 μM), 26 to 50%; in test [3], 26 to 50%. Also, the IC50 in test [1] is greater than 1000 nM.
Regarding `CC(NC(=O)c1cc2n(n1)CCN(Cc1c(Cl)cccc1Cl)C2=O)c1ccccc1` (centres unmarked) [RU-0045115], the inhibition at 4 µM in test [1] is less than 25%; in test [2] (compound applied at 4 μM) it was 26 to 50%; in test [3], less than 25%.
Turning to `C=C[C@@](C)(O)CCC1C(=C)CCC2[C@@](C)(CO)CCC[C@]12C` (some centres unmarked) [RU-0001327], the inhibition at 4 µM was 26 to 50% in test [1], less than 25% in test [2] (compound applied at 4 μM) and less than 25% in test [3].
With `COc1ccc(-c2nnc(SCc3ccc(C#N)cc3)n2-c2ccc(C)cc2)cc1` [RU-0046426], the inhibition at 4 µM was 26 to 50% in test [1], 26 to 50% in test [2] (compound applied at 4 μM) and less than 25% in test [3].
Regarding `COc1ccc(N2CCN(C(=O)C3CC=CCC3C(=O)NC(c3ccccc3)c3ccccn3)CC2)cc1` (centres unmarked) [RU-0026507], the results for the inhibition at 4 µM in test [1], in test [2] (compound applied at 4 μM) and in test [3] were less than 25%, 26 to 50% and less than 25%, respectively.
